The record followed here is patent publication US4803217A, “Hapalindolinone compounds as vassopressin antagonists” (Merck & Co., Inc., priority 1986, dated 1989).

Each structure is given as a SMILES string.

Assay [1] deals with vasopressin-stimulated adenylate cyclase, Kidney (V2). Kind of assay: Inhibition of vasopressin-stimulated adenylate cyclase in kidney medulla (V2 antagonism). To be noted: conversion of ATP to cAMP, mean, n = 2, read-out: IC50 Values, AVP-stimulated Ad. Cyclase, Kidney (V2). Type of assay: biochemical. The source says: (§1) The table summarizes the in vitro potency of the compound to compete for ^3 H-vasopressin binding at two proposed vasopressin receptor subtypes (V1, V2), as well as to inhibit vasopressin-stimulated adenylate cyclase-activity, a further measure of vasopressin antagonism.
Vasopressin exerts its antidiuretic effects on the kidney through the stimulation of adenylate cyclase activity. Vasopressin-stimulated adenylate cyclase in kidney medulla, therefore, is used as a functional assay to determine the potencies of the test compound as V2 -vasopressin antagonists. In this assay, the IC50 value obtained for the compound IA (see Table IV) is a measure of its potency to inhibit the vasopressin-stimulated conversion of ATP to CAMP by adenylate cyclase. This method was adapted from Seamon et al., PNAS 78: 3363-3367 (1981).

In assay [2] the target is T1, V1 (pressor) vasopressin receptor, rat liver crude membrane preparation (Rattus norvegicus, UniProt P30560).
T1 construct: crude membrane preparation of rat liver (V1 receptor); from tissue; host or cells: rat liver, crude membrane preparation
Kind of assay: [3H]Arginine Vasopressin Binding Assay, liver (V1). The conditions noted are these: rat liver membranes; mean, n = 3; read-out: IC50 Values, 3H-Arg8-Vasopressin Binding, Liver (V1).
Excerpt: as §1
(§2) The [^3 H]Arginine Vasopressin Binding Assay is an in vitro procedure which was adapted from the method of Guillon et al., Eur. J. Pharmacol. 85: 219-304 (1982). It measures the relative affinity of the compound for vasopressin receptor(s) labelled by [^3 H]vasopressin. Vasopressin receptors have been divided into two subtypes pharmacollogically: the V1 (pressor)-receptor found in liver and vascular smooth muscle and the V2 (antidiuretic) receptor found in kidney medulla. The binding assay uses a crude membrane preparation of rat liver (V1 receptor) or kidney medulla (V2 receptor) which is incubated with [^3 H]vaspopressin in the presence or absence of the test compound. The IC50 values (concentrations to inhibit [^3 H]vasopressin binding by 50%) for the compound (see Table VI) are measures of their potencies and are inversely related to their affinities.

Assay [3] addresses T2, V2 (antidiuretic) vasopressin receptor, kidney medulla crude membrane preparation (Rattus norvegicus, UniProt Q00788).
T2 construct: crude membrane preparation of rat liver (V1 receptor) or kidney medulla (V2 receptor); from tissue; host or cells: kidney medulla, crude membrane preparation
Description: [3H]Arginine Vasopressin Binding Assay, kidney medulla (V2). To be noted: kidney medulla membranes; mean with standard error, n = 3; read-out: IC50 Values, 3H-Arg8-Vasopressin Binding, Kidney (V2).
Excerpt: as §1, §2

T1 sequence (P30560 whole entry): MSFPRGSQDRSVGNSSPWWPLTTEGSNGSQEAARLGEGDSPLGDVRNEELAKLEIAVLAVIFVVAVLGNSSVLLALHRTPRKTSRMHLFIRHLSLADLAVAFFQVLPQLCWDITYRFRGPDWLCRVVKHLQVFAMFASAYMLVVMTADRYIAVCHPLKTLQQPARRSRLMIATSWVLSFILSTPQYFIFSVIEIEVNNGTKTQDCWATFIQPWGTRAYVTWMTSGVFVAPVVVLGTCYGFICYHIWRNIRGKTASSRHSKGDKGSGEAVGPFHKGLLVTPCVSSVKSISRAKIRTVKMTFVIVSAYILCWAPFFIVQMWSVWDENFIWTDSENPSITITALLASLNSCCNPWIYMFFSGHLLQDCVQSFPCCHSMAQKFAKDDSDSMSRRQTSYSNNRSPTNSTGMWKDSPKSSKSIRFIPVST
T2 sequence (Q00788 whole entry): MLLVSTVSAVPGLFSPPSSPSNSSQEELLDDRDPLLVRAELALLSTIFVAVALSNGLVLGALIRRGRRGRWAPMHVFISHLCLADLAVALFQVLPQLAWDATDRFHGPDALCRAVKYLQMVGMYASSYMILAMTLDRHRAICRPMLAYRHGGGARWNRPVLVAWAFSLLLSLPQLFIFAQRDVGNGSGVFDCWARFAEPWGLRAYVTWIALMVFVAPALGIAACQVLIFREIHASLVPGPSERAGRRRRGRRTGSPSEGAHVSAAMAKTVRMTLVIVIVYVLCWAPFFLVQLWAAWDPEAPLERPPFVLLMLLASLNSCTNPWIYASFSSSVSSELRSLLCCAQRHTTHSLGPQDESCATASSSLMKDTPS

For the compound `[C-]#[N+]C12C(C(C(=C)C)CC(Cl)C1(C)C=C)C21C(=O)Nc2ccccc21` (stereo not drawn) [Formula IA, Hapalindolinone A], the IC50 (commonly the midpoint of a concentration-inhibition curve) in assay [1] was 44.6 µM; in assay [2], more than 100 µM; in assay [3] it was 37.5 ± 7.6 µM.
